Assay results: patent publication US20230108004A1, “TREATMENT OF EPILEPSY WITH PLINABULIN OR HALIMIDE OR DIKETOPIPERAZINE DERIVATIVES” (Katholieke Universiteit Leuven, priority 2017, published 2023)

Assays:
[1] = tested on: PTZ-induced seizure behavior in zebrafish larvae; assay: Zebrafish pentylenetetrazole (PTZ) seizure model, behavioral analysis; type: in vivo, zebrafish (Danio rerio); settings: 2 hours incubation; for antiseizure activity of the separated enantiomers: S-enantiomer only significant at 200 μg/mL (p<0.01)
Protocol: Experiments were performed as described in Copmans et al. (2018) Neurochem. Int. 112, 124-133; Afrikanova et al (2013) PLoS One 8, e54166 and Orellana-Paucar et al. (2012) Epilepsy Behav 24, 14-22. In brief, a single 7 dpf larva was placed in each well of a 96-well plate and treated with either VHC (1% DMSO) or test compound (1% DMSO) in a 100 μL volume. Larvae were incubated in dark for 2 hours at 28° C., whereafter 100 μL of either VHC (embryo medium) or 40 mM PTZ (20 mM working concentration) was added to each well. Next, within 5 minutes the 96-well plate was placed in an automated tracking device (ZebraBox Viewpoint, France) and larval behavior was video recorded for 30 minutes. The complete procedure was performed in dark conditions using infrared light. Total locomotor activity was recorded by ZebraLab software (Viewpoint, France) and expressed in actinteg units, which is the sum of pixel changes detected during the defined time interval (5 minutes). Larval behavior was depicted as mean actinteg units per 5 minutes during the 30 minute recording period and over consecutive time intervals. Data are expressed as mean±SD for single experiments with regards to screening and as mean±SEM for single experiments and for independent experiments of which the means or data are pooled.
In the first secondary screen three replicate wells were used per sample (100 μg/mL) tested and each experimental plate contained 12 internal control wells. In the second secondary screen six replicate wells were used per sample and concentration tested (100, 33, and 11 μg/mL), again 12 internal control wells were used per experimental plate.

[2] = tested on: PTZ-induced epileptiform discharges in zebrafish larvae; assay: Zebrafish PTZ seizure model, electrophysiology (local field potential recordings from the optic tectum); type: in vivo, zebrafish (Danio rerio); settings: 2 hours, 10 min recording
Protocol: Non-invasive LFP recordings were measured from the midbrain (optic tectum) of 7 dpf zebrafish larvae pre-incubated with VHC only, PTZ only, compound and VHC, or compound and PTZ [Zdebik, et al. (2013) PLoS One 8, 6e10. Experiments were performed as described in Copmans, et al. (2018) Neurochem. Int. 112, 124-133 and Copmans et al. (2018) ACS chemical neuroscience.]. In brief, larvae were incubated for approximately 2 hours with VHC (1% DMSO) or test compound (1% DMSO) in a 100 μL volume. After incubation, an equal volume of VHC (embryo medium) or 40 mM PTZ (20 mM working concentration) was added to the well for 15 minutes prior to recording. These steps occurred at 28° C., while further manipulation and electrophysiological recordings occurred at room temperature (±21° C.). The larva was embedded in 2% low melting point agarose (Invitrogen) and the signal electrode (an electrode inside a soda-glass pipet (1412227, Hilgenberg) pulled with a DMZ Universal Puller (Zeitz, Germany), diameter±20 microns, containing artificial cerebrospinal fluid (ACSF: 124 mM NaCl, 10 mM glucose, 2 mM KCl, 2 mM MgSO4, 2 mM CaCl2), 1.25 mM KH2PO4, and 26 mM NaHCO3, 300-310 mOsmols)) was positioned on the skin covering the optic tectum. A differential extracellular amplifier (DAGAN, USA) amplified the voltage difference between the signal (measured by the signal electrode) and the reference electrode. The differential signal was band pass filtered at 0.3-300 Hz and digitized at 2 kHz via a PCI-6251 interface (National instruments, UK) using WinEDR (John Dempster, University of Strathclyde, UK). A grounding electrode grounded the electrical system. All electrodes were connected with ACSF. Each recording lasted 600 seconds. Manual analysis was completed by quantification of the number, cumulative duration, and mean duration of epileptiform-like events with Clampfit 10.2 software (Molecular Devices Corporation, USA). An electrical discharge was considered epileptiform if it was a poly-spiking event comprising at least 3 spikes with a minimum amplitude of three times the baseline amplitude and a duration of at least 100 milliseconds. Data are expressed as mean±SD.

zebrafish larvae = assay: Zebrafish toxicity evaluation: maximum tolerated concentration (MTC); type: in vivo, zebrafish (Danio rerio); settings: highest concentration without death, toxicity or locomotor impairment
Protocol: Maximum tolerated concentration (MTC) was determined prior to further experiments and used as the highest test concentration. Experiments were performed as described in Copmans et al. (2018) Neurochem. Int. 112, 124-133. before. In brief, the MTC was investigated by exposing 12 larvae of 6 or 7 dpf to a range of concentrations in a 100 μL volume during 18 hours. The following parameters were investigated after 2 and 18 hours of exposure: touch response, morphology, posture, edema, signs of necrosis, swim bladder, and heartbeat. […] In case no MTC was reached, the highest soluble concentration was used.
Maximum tolerated concentration (MTC) was determined prior to further experiments and used as the highest test concentration. Experiments were performed as described in Copmans et al. (2018). Neurochem. Int. 112, 124-133. In brief, the MTC was investigated by exposing 12 larvae of 7 dpf to a range of concentrations in a 100 μL volume during 18 hours. The following parameters were investigated after 2 and 18 hours of exposure: touch response, morphology, posture, edema, signs of necrosis, swim bladder, and heartbeat.

[3] = tested on: EKP-induced epileptiform discharges in zebrafish larvae; assay: Zebrafish EKP seizure model, electrophysiology (local field potential recordings); type: in vivo, zebrafish (Danio rerio); settings: 12.5 μg/mL, 2 hours; 10 min recording; p≤0.05
Protocol: Non-invasive LFP recordings were measured from the midbrain (optic tectum) of 7 dpf zebrafish larvae pre-incubated with VHC only, EKP only, compound and VHC, or compound and EKP. Larvae were incubated for approximately 2 hours with VHC (1% DMSO) or test compound (1% DMSO). After incubation, VHC (1% DMSO) or 1 mM EKP (1% DMSO, 500 μM working concentration) was added to the well for 15 minutes prior to recording. These steps occurred at 28° C., while further manipulation and electrophysiological recordings occurred at room temperature (±21° C.). The larva was embedded in 2% low melting point agarose (Invitrogen) and the signal electrode was positioned on the skin covering the optic tectum and electrophysiological recordings (room temperature) were performed as described above for the zebrafish PTZ seizure model and as described in Zhang et al. (2017) Sci. Rep. 7, 7195. Manual analysis was completed by quantification of the number, cumulative duration, and mean duration of epileptiform-like events with Clampfit 10.2 software (Molecular Devices Corporation, USA). An electrical discharge was considered epileptiform if it was a poly-spiking event comprising at least 3 spikes with a minimum amplitude of three times the baseline amplitude and a duration of at least 100 milliseconds. Data are expressed as mean±SD.

[4] = tested on: drug-resistant psychomotor seizures induced by corneal electrical stimulation; assay: Mouse 6-Hz (44 mA) psychomotor seizure model; type: in vivo, Male NMRI mice; settings: 30 min before stimulation, VHC 28 s
Protocol: Experiments were performed as previously described. In brief, NMRI mice (average weight 32 g, range 28-36 g) were randomly divided into control and treatment groups (n=6-11). 50 μL (injection volume was adjusted to the individual weight) of VHC (PEG200:DMSO 1:1) or treatment (an ASD or test compound dissolved in VHC) was i.p. injected in mice and after 30 minutes psychomotor seizures were induced by low frequency, long duration corneal electrical stimulation (6 Hz, 0.2 ms rectangular pulse width, 3 s duration, 44 mA) using an ECT Unit 5780 (Ugo Basile, Comerio, Italy). Mice were manually restrained and a drop of ocular anesthetic (0.5% lidocaine) was applied to the corneas before stimulation. Following electrical current stimulation, the mouse was released in a transparent cage for behavioral observation, which was video-recorded. […] In addition, facial and mouth jerking as well as head nodding were observed occasionally. Seizure durations were measured during the experiment by experienced researchers, familiar with the different seizure behaviors. In addition, seizure durations were determined by blinded video analysis to confirm or correct the initial observations. Data are expressed as mean±SD.

[5] = tested on: EKP-induced seizure behavior in zebrafish larvae; assay: Zebrafish ethyl ketopentenoate (EKP) seizure model, behavioral analysis; type: in vivo, zebrafish (Danio rerio)
Protocol: Experiments were performed as described in Zhang et al. (2017) Sci. Rep. 7, 7195. In brief, a single 7 dpf larva was placed in each well of a 96-well plate and treated with either VHC (1% DMSO) or test compound (1% DMSO) in a 100 μL volume. Larvae were incubated in dark for 2 hours at 28° C., whereafter 100 μL of either VHC (1% DMSO) or 1 mM EKP (1% DMSO, 500 μM working concentration) was added to each well. Next, within 5 minutes the 96-well plate was placed in an automated tracking device (ZebraBox Viewpoint, France) and larval behavior was video recorded for 30 minutes. The complete procedure was performed in dark conditions using infrared light. Total locomotor activity was recorded by ZebraLab software (Viewpoint, France) and expressed in actinteg units, which is the sum of pixel changes detected during the defined time interval (5 minutes). Larval behavior was depicted as mean actinteg units per 5 minutes during the 30 minute recording period and over consecutive time intervals. Data are pooled from independent experiments and expressed as mean±SEM.

SMILES: C=CC(C)(C)c1[nH]cnc1C=C1NC(=O)C(Cc2ccccc2)NC1=O (single isomer, unassigned) [R-enantiomer]
- antiseizure activity of the separated enantiomers [1]: no significant effect

SMILES: C=CC(C)(C)c1nc[nH]c1/C=C1\NC(=O)C(Cc2ccccc2)NC1=O (single isomer, unassigned) [S-enantiomer]
- antiseizure activity of the separated enantiomers [1]: active

SMILES: C=CC(C)(C)c1nc[nH]c1/C=C1\NC(=O)C(Cc2ccccc2)NC1=O (stereo not drawn) [halimide]
- PTZ-induced seizure behavior ([1]; halimide at its MTC, 30 min recording period, p≤0.05): significantly lowered
- cumulative duration of PTZ-induced epileptiform events ([2]; MTC (200 μg/mL), p≤0.001): significantly lowered
- lowering of the percentage of larvae with PTZ-induced epileptiform activity ([2]; MTC (200 μg/mL), p≤0.001): ~60%
- number of PTZ-induced epileptiform events ([2]; MTC (200 μg/mL), p≤0.001): significantly lowered
- maximum tolerated concentration (MTC) (zebrafish larvae): 200 µg/mL

SMILES: CC(C)(C)c1[nH]cnc1/C=c1\[nH]c(=O)/c(=C/c2ccccc2)[nH]c1=O [plinabulin]
- PTZ-induced seizure behavior ([1]; 1.56-12.5 μg/mL, 30 min recording, p≤0.01 (1.56), p≤0.001 (3.13, 6.25, 12.5) (FIG. 7A)): significantly lowered
- PTZ-induced seizure behavior ([1]; 12.5 and 3.13 μg/mL, 30 min recording period, p≤0.001 (FIG. 4C)): significantly lowered
- cumulative duration of EKP-induced epileptiform events [3]: significantly lowered
- lowering of the percentage of larvae with EKP-induced epileptiform activity [3]: 40%
- number of EKP-induced epileptiform events [3]: significantly lowered
- number of PTZ-induced epileptiform events ([2]; 12.5 μg/mL): non-significantly lowered
- percentage of larvae with PTZ-induced epileptiform activity ([2]; 12.5 μg/mL): non-significantly lowered
- cumulative duration of PTZ-induced epileptiform events ([2]; 12.5 μg/mL, p≤0.05): significantly lowered
- mean seizure duration ([4]; 5 mg/kg i.p., not significant): 21 s
- mean seizure duration ([4]; 10 mg/kg i.p., p<0.05): 12.5 s
- mean seizure duration ([4]; 20 mg/kg i.p., p<0.01): 15 s
- mean seizure duration ([4]; 40 mg/kg i.p., p<0.05): 15 s
- normal swimming behavior in comparison to VHC-treated larvae ([5]; 3.13, 6.25 and 12.5 μg/mL, compound+VHC, zebrafish EKP seizure model): significantly lowered
- EKP-induced seizure behavior ([5]; all concentrations tested (0.78-12.5 μg/mL), 2 hours incubation, 30 min recording (FIG. 7B)): significantly lowered
